According to US20230303569A1, “HETEROCYCLIC COMPOUNDS AS THERAPEUTIC AGENTS” (Arisan Therapeutics Inc., priority 2021, published 2023):
Read-outs that look alike come from different tables or passages of the source.

Key:
Format in all cases: cell-based
[1] = biological target: T1, human Nav1.5 (pulse 2, state-dependent inhibition) (Homo sapiens, UniProt Q14524); assay: Two pulse assay protocol, Nav1.5; details: HEK293 cells stably expressing human Nav1.5, pH 7.3, peak current, pulse 2 (state-dependent), read-out: percent inhibition hNav1.5, Pulse 2 (5 uM)
T1 construct: host or cells: HEK293
Experimental: (§1) In vitro Na+ Current Inhibition Assays were performed by Eurofins Discovery (St Charles, MO). All compound functional activity determinations were determined through electrophysiological analyses of Na+ currents in HEK293 cells expressing a stably transfected Na+ channel (human Nav1.1, 1.2, 1.3, 1.5, 1.6, 1.7, or 1.8). After harvesting with Accutase cells are maintained in serum free medium at room temperature prior to electrophysiological recording utilizing the QPatch HT automated whole-cell patch-clamp platform (Sophion Bioscience, Woburn MA). Stock solution aliquots of the test compound are prepared in DMSO at 300× the final assay concentrations, and stored at −20° C. until the day of assay. On the day of the assay, an aliquot of the stock solution is thawed and diluted into external solution (137 mM NaCl, 4 mM KCl, 1 mM MgCl2, 1.8 mM CaCl2, 10 mM HEPES, 10 mM Glucose (pH 7.3, titrated with 10M NaOH) to make final test concentrations. A final concentration of 0.33% DMSO is maintained for each concentration of the assay compounds. Internal solution for recordings of Na+ consist consists of 100 mM CsF, 45 mM CsCl, 5 mM NaCl, 10 mM HEPES, 5 mM EGTA (pH 7.3, titrated with 1M CsOH).
(§2) Two pulse assay protocol for human Nav1.1, 1.2, 1.3, 1.5, 1.6, 1.7, and 1.8 channels. Mammalian cultured cells expressing the indicated human Nav1.1, 1.2, 1.3, 1.5, 1.6, 1.7 or 1.8 channels were assayed using the The QPatch HT (Sophion Bioscience, Woburn MA) automated system with an intracellular solution (mM) of 100 CsF, 45 CsCl, 5 NaCl, 10 HEPES, 5 EGTA (pH 7.3, titrated with 1M CsOH) and extracellular solution (mM) of 137 NaCl, 4 KCl, 1 MgCl2, 1.8 CaCl2, 10 HEPES, 10 Glucose (pH 7.3, titrated with 10M NaOH). Onset and steady state block of the sodium channel was measured using a pulse pattern, repeated every 20 seconds (s) from a holding potential of −120 mV for 100 ms, and then pulsed to 0 mV for 500 ms to inactivate the Na channels and facilitate inactivated state-dependent binding of the test compounds. The cell membranes were then stepped back to −120 mV for 10 ms to recover from inactivation into resting or closed state (channels with test compound bound to them will not recover from inactivation and will not open) before stepping to 0 mV for 50 ms (pulse 2) to measure Na channels that are available to open. Peak current was measured during the step to 0 mV at pulse 1 and 2 to measure tonic and state-dependent inhibition. Compound activities were assessed by dividing post current amplitude (at the end of each five (5) minute compound application) by the vehicle control amplitude and the mean calculated for each compound concentration. Tetracaine was used as a positive control and was tested concurrently with the test compounds. Current amplitudes in excess of 200 pA at the control stage were analyzed. The amplitude of the current was calculated by measuring the difference between the peak inward current on stepping to 0 mV (i.e. peak of the current) and remaining current at the end of the step. The current was assessed in vehicle control conditions and then at the end of each five (5) minute compound application.

[2] = biological target: T2, human Nav1.5 (pulse 1, tonic inhibition) (Homo sapiens, UniProt Q14524); assay: Two pulse assay protocol, Nav1.5; details: HEK293 cells stably expressing human Nav1.5, pH 7.3, peak current, pulse 1 (tonic), read-out: percent inhibition hNav1.5, Pulse 1 (5 uM)
T2 construct: host or cells: HEK293
Experimental: as §1, §2

human Nav1.6 = biological target: T3, human Nav1.6 (Homo sapiens, UniProt Q9UQD0); assay: Two pulse assay protocol, Nav1.6; details: 5 uM, peak current
T3 construct: host or cells: HEK293
T3 sequence (Q9UQD0 whole entry): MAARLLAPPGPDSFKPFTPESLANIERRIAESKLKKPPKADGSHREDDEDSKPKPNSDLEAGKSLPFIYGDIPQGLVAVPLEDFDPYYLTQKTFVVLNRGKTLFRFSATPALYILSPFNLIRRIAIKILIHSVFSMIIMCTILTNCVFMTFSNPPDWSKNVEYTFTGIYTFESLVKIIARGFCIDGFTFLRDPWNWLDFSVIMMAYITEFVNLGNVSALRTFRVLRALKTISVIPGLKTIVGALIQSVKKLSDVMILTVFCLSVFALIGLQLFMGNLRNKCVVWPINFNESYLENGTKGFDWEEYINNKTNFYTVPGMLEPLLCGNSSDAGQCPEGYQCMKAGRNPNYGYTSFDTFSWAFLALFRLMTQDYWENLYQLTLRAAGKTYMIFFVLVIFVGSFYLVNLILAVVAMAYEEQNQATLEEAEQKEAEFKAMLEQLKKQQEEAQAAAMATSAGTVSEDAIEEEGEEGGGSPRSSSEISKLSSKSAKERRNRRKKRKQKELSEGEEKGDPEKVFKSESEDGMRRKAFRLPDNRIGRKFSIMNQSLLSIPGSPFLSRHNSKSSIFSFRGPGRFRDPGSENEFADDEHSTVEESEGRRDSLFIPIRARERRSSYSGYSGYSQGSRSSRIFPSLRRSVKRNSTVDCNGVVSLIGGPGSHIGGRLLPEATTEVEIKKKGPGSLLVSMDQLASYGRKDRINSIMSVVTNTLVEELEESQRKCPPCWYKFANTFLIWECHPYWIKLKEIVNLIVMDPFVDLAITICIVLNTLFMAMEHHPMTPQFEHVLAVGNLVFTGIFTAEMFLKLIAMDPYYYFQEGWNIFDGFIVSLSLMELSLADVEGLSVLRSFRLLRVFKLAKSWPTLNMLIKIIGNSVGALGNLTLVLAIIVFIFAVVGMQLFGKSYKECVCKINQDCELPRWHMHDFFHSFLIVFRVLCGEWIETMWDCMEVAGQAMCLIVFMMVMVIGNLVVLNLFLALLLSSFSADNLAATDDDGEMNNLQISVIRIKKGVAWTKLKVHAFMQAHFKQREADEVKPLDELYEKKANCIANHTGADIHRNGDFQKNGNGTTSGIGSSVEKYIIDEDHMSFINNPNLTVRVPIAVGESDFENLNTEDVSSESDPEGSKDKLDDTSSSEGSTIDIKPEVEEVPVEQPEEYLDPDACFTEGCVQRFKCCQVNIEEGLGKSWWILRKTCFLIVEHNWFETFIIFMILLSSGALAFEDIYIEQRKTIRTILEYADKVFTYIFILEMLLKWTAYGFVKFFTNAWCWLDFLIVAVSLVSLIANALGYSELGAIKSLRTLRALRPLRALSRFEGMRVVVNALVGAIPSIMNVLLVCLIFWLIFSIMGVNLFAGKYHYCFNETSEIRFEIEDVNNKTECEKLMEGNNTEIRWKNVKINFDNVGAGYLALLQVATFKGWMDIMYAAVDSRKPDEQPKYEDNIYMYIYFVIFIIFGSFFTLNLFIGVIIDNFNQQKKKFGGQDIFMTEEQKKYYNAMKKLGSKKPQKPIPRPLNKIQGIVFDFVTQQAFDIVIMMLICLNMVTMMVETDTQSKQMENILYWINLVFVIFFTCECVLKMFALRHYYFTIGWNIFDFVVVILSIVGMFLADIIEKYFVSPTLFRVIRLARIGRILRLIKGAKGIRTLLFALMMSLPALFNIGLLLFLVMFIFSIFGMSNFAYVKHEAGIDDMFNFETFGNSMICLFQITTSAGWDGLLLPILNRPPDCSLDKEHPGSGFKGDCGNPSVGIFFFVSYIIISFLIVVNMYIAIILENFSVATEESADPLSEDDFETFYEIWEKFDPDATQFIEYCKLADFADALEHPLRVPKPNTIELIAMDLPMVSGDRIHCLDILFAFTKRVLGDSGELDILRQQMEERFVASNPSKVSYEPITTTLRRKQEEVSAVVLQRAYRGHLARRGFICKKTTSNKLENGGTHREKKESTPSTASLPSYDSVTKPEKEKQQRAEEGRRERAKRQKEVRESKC
Experimental: as §1, §2

human Nav1.7 = biological target: T4, human Nav1.7 (Homo sapiens, UniProt Q15858); assay: Two pulse assay protocol, Nav1.7; details: peak current
T4 construct: host or cells: HEK293
T4 sequence (Q15858 whole entry): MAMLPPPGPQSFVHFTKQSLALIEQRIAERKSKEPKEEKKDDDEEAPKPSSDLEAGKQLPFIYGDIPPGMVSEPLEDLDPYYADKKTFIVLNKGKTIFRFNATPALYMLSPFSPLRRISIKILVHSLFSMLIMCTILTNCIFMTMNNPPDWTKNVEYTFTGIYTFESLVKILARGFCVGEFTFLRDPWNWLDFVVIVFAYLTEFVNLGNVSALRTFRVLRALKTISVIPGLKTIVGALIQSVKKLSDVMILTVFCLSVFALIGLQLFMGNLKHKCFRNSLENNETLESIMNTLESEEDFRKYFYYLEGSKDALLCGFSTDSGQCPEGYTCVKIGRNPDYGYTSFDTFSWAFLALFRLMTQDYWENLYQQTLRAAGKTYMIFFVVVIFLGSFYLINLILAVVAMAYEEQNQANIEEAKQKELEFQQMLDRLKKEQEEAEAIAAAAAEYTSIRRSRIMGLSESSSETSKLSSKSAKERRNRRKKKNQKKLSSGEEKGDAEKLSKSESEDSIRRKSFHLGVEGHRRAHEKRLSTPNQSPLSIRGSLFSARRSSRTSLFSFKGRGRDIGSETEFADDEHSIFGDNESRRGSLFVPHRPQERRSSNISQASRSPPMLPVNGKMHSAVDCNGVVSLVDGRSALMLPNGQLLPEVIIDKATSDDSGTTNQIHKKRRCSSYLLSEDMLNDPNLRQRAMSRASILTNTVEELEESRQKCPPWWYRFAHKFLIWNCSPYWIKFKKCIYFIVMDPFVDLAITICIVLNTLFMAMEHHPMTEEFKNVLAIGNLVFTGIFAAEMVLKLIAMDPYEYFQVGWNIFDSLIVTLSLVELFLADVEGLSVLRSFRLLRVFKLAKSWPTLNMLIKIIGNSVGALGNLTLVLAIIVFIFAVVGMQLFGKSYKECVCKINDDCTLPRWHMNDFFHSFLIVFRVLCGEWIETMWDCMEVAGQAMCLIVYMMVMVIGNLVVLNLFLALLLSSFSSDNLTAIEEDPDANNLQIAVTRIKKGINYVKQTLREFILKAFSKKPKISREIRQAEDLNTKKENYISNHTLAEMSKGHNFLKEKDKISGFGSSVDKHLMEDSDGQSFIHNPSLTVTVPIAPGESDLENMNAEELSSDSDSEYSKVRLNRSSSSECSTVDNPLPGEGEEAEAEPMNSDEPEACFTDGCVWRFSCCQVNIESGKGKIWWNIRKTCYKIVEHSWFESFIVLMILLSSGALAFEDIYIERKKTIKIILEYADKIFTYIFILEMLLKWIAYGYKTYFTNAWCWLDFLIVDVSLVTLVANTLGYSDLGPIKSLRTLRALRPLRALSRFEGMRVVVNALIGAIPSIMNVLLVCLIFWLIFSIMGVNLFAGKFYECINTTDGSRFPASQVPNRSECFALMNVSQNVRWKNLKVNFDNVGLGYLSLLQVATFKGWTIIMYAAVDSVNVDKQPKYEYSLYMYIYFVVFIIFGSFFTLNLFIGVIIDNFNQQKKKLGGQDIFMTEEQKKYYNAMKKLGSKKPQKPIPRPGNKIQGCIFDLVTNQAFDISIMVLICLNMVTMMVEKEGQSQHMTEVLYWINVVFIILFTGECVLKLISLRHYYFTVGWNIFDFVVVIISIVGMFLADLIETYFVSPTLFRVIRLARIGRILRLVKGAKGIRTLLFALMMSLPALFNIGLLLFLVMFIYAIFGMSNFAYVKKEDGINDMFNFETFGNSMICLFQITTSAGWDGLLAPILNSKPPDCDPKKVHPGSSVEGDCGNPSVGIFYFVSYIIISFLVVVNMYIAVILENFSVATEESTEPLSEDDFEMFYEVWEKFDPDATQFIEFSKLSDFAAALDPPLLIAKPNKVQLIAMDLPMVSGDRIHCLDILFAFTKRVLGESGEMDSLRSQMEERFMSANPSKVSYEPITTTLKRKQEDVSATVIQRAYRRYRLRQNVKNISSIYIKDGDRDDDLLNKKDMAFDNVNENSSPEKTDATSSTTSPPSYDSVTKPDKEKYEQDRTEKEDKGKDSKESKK
Experimental: as §1, §2

human Nav1.2 = biological target: T5, human Nav1.2 (Homo sapiens, UniProt Q99250); assay: Two pulse assay protocol, Nav1.2; details: peak current
T5 construct: host or cells: HEK293
Experimental: as §1, §2

[3] = biological target: T6, human Nav1.5 (late current) (Homo sapiens, UniProt Q14524); assay: Nav1.5 Late Current Assay (QPatch HT whole-cell patch clamp, 30 nM ATX-II); details: HEK293 cells stably expressing human Nav1.5, pH 7.3, late current with 30 nM ATX-II, read-out: percent inhibition hNav1.5 Late (5 uM)
T6 construct: host or cells: HEK293
Experimental: as §1
Onset and steady state induction of late Nav1.5 current was measured using a pulse pattern, repeated every 5 sec, consisting of a hyperpolarizing pulse to −120 mV for a 200 ms duration, depolarization to −15 mV amplitude for a 40 ms duration, followed by step to 40 mV for 200 ms and finally a 100 ms ramp (1.2 V/s) to a holding potential of −80 mV. Each concentration of compound was applied for 5 minutes. The assay was performed at room temperature. After establishing vehicle control condition, all further addition of external solutions contain 30 nM ATX-II to activate late currents. Each concentration of compound was also co-applied with 30 nM ATXII to estimate the Nav1.5 late current inhibition. […]. ATXII was used as the agonist positive control and was tested concurrently with the test compound. Ranolazine was used as the positive control and was tested concurrently with the test compound.
Nav1.5 late current was measured as the total charge flowing through the Nav1.5 channels (area under the curve) 5 ms after the Nav1.5 peak current till the end of the test pulse and as charge at their maxima during the ramp. Individual cell results were normalized to their respective vehicle control and the results were averaged. The sodium current was assessed in 30 nM ATXII as vehicle control conditions and then at the end of each five (5) minute compound application in the presence of 30 nM ATXII. Individual cell result was normalized to 30 nM ATXII vehicle control amplitude and the mean±SEM calculated for each compound concentration.

[4] = biological target: T7, human Nav1.5 (peak current) (Homo sapiens, UniProt Q14524); assay: Nav1.5 Peak Current Assay (QPatch HT whole-cell patch clamp); details: HEK293 cells stably expressing human Nav1.5, pH 7.3, peak current at step to -15 mV, read-out: percent inhibition hNav1.5 Peak (5 uM)
T7 construct: host or cells: HEK293
Experimental: as §1
Onset and steady state block of peak Nav1.5 current was measured using a pulse pattern, repeated every 5 sec, consisting of a hyperpolarizing pulse to −120 mV for a 200 ms duration, depolarization to -15 mV amplitude for a 40 ms duration, followed by step to 40 mV for 200 ms and finally a 100 ms ramp (1.2 V/s) to a holding potential of −80 mV. Peak current was measured during the step to −15 mV.
Each concentration of compound was applied for 5 minutes. The assay was performed at room temperature and Tetracaine was used concurrently as a positive control. Only current amplitudes in excess of 200 pA at the control stage were analyzed. The amplitude of the sodium current was calculated by measuring the difference between the peak inward current on stepping to −15 mV (i.e. peak of the current) and the leak current. The sodium current was assessed in vehicle control conditions and then at the end of each five (5) minute compound application. Individual cell result was normalized to the vehicle control amplitude and the mean±SEM calculated for each compound concentration.

[5] = pulse 1 (tonic), read-out: percent inhibition hNav1.6, Pulse 1 (5 uM)
[6] = pulse 2 (state-dependent), read-out: percent inhibition hNav1.6, Pulse 2 (5 uM)
[7] = pulse 1 (tonic), read-out: percent inhibition hNav1.7, Pulse 1 (5 uM)
[8] = pulse 2 (state-dependent), read-out: percent inhibition hNav1.7, Pulse 2 (5 uM)
[9] = pulse 1 (tonic), read-out: percent inhibition hNav1.2, Pulse 1 (5 uM)
[10] = pulse 2 (state-dependent), read-out: percent inhibition hNav1.2, Pulse 2 (5 uM)

| inhibition at 5 µM (human Nav1.6; [5]) [%] | inhibition at 5 µM (human Nav1.6; [6]) [%] | inhibition at 5 µM (human Nav1.7; [7]) [%] | inhibition at 5 µM (human Nav1.7; [8]) [%] | inhibition at 5 µM (human Nav1.2; [9]) [%] | inhibition at 5 µM (human Nav1.2; [10]) [%] | Structure (SMILES) | inhibition at 5 min, 5 µM [1] [%] | inhibition at 5 min, 5 µM [2] [%] | inhibition at 5 min, 5 uM [3] [%] | inhibition at 5 min, 5 µM [4] [%] |
| --- | --- | --- | --- | --- | --- | --- | --- | --- | --- | --- |
| < 50 | > 90 | < 50 | 50 to 90 | < 50 | > 90 | CC(C)Oc1ccc(-c2ccc3ncc(-c4ccc(C(C)C)cc4)n3c2)cc1 [Example C73, 6-(4-isopropoxyphenyl)-3-(4-isopropylphenyl)imidazo[1,2-a]pyridine] | > 90 | < 50 | – | – |
| < 50 | < 50 | – | – | – | – | Cc1cc2ncc(-c3ccc(OC(C)C)nc3)n2cc1-c1ccc(OC(C)C)cc1 [Example C70, 6-(4-isopropoxyphenyl)-3-(6-isopropoxypyridin-3-yl)-7-methylimidazo[1,2-a]pyridine] | – | – | 50 to 90 | < 50 |
| < 50 | > 90 | < 50 | > 90 | < 50 | > 90 | CC(C)Oc1ccc(-c2ccc3ncc(-c4ccc(Oc5ccccc5)cc4)n3c2)cc1 [Example C72, 6-(4-isopropoxyphenyl)-3-(4-phenoxyphenyl)imidazo[1,2-a]pyridine] | 50 to 90 | < 50 | – | – |

| Structure (SMILES) | inhibition at 5 µM (human Nav1.6; [5]) [%] | inhibition at 5 µM (human Nav1.6; [6]) [%] | inhibition at 5 µM (human Nav1.7; [7]) [%] | inhibition at 5 µM (human Nav1.7; [8]) [%] | inhibition at 5 µM (human Nav1.2; [9]) [%] | inhibition at 5 µM (human Nav1.2; [10]) [%] | inhibition at 5 min, 5 µM [1] [%] | inhibition at 5 min, 5 µM [2] [%] | inhibition at 5 min, 5 uM [3] [%] | inhibition at 5 min, 5 µM [4] [%] |
| --- | --- | --- | --- | --- | --- | --- | --- | --- | --- | --- |
| CC(C)Oc1ccc(-c2ccc3ncc(-c4ccc(OC(C)(C)C)cc4)n3c2)cc1 [Example C32, 3-[4-(tert-butoxy)phenyl]-6-[4-(propan-2-yloxy)phenyl]imidazo[1,2-a]pyridine] | < 50 | > 90 | – | – | – | – | – | – | > 90 | 50 to 90 |
